Data set [1] in a line: Plasma 5-HTP levels in mice given 5-HTP and/or carbidopa via food for 14 days. The following applies: for augmentation of the 5-HTP plasma elevation induced by 5-HTP: carbidopa 2, 5 or 10 mg/kg/day added to 5-HTP 200 mg/kg/day, similar in WT and 5-HTHypo mice. The format is in vivo. The source says:
(§1) Mice: Adult mice were used, both wildtype (WT) mice with normal 5-HT levels and ‘5-HTHypo’ mice with reduced brain 5-HT synthesis and levels (Beaulieu et al, 2008). The 5-HTHypo mice are a naturalistic model of brain 5-HT deficiency, which is known to be a pathogenic factor in several CNS disorders, e.g. depression and suicide.
(§2) Drug treatments: Carbidopa was used as a PDI. To model oral drug delivery occurring in humans during a therapeutic scenario, 5-HTP and carbidopa was delivered via the mouse food (standard chow). This approach distributed the drug delivery over time, imparting a measure of ‘slow-release’ (aka sustained-, extended-, time-, controlled-release) delivery. 5-HTP was administered in a dose of 200 mg/kg/day. Carbidopa was administered in doses of 2, 5 or 10 mg/kg/day in addition to 5-HTP, to assess the effect of carbidopa on the outcomes of 5-HTP treatment. To assess the effect of carbidopa alone, groups of mice were also administered carbidopa 10 mg/kg/day, the highest carbidopa dose, without concomitant 5-HTP. Comparisons were made to untreated mice. Duration of all treatments was 14 days, which is considered chronic in mouse experiments.
(§3) Sample collection: During treatments blood samples were collected to assess plasma levels of 5-HTP and carbidopa. At end of treatments mice were euthanized and brain tissues (frontal cortex) were collected.
(§4) Quantitative analysis: Levels of plasma 5-HTP, plasma carbidopa, brain 5-HT, and brain 5-hydroxyindoleacetic acid (5-HIAA, major 5-HT metabolite) were quantified using HPLC, as described (Jacobsen et al, 2012b). The limits of detection for 5-HT and 5-HTP in plasma were 1 ng/ml and for carbidopa in plasma 2 ng/ml (FIG. 4C).

Another data set has as its system brain 5-HT. Nature of the data set: Brain (frontal cortex) 5-HT tissue levels in mice after 14 days of treatment. The class given is in vivo. Conditions: for augmentation of the brain 5-HT tissue elevation induced by 5-HTP: carbidopa 2, 5 or 10 mg/kg/day added to 5-HTP 200 mg/kg/day, more pronounced in 5-HTHypo mice.
Text: as §1, §2, §3, §4

Another data set has as its system brain 5-HIAA. As to the kind of experiment: Brain (frontal cortex) 5-HIAA tissue levels in mice after 14 days of treatment. Conditions: for augmentation of the brain 5-HIAA tissue elevation induced by 5-HTP: carbidopa 2, 5 or 10 mg/kg/day added to 5-HTP 200 mg/kg/day, more pronounced in 5-HTHypo mice. The format is in vivo.
Text: as §1, §2, §3, §4

The conditions of data set [2]: cited from earlier work.
The conditions of data set [3]: animal studies (Shindo et al, 1977); cited from earlier work.
Data set [4] has as its system aromatic amino acid decarboxylase enzyme (AAAD). Conditions: after oral administration (Da Prada et al, 1987); cited from earlier work.
For data set [5] the following is noted: animals; including kidney insufficiency and growth anomalies; cited from earlier work.
Data set [6] can be described thus: HPLC electrochemical quantification of carbidopa in mouse plasma. The class given is in vivo, mice. The procedure: FIG. 4A-4D. HPLC electrochemical quantification of carbidopa in plasma. FIG. 4A: 10 ng/ml standard in perchloric acid. Carbidopa peak visible at 24 min. FIG. 4B: Plasma extract from mouse not treated with carbidopa. […] Baseline undulations at 24 min is detector noise. FIG. 4C: Plasma extract from a mouse not treated with carbidopa, but the plasma spiked with carbidopa to a concentration of 2 ng/ml prior to extraction. Carbidopa peak visible at 24 min. FIG. 4D: Plasma extract from mouse treated with 10 mg/kg/day carbidopa. […] Baseline undulations at 24 min is detector noise, as indicated.
as §2, §3, §4

Data set [7] in a line: Carbidopa plasma levels in humans at therapeutic doses (literature). The format is in vivo. The following applies: reported human chronic studies with carbidopa and 5-HTP; extrapolated across references.
For data set [8] the following is noted: cited from earlier work. This is another data set of the same source.
Where [9] appears, read: 5-HTP 200 mg/kg/day alone via food, 14 days, vs untreated.
[10] abbreviates: carbidopa 10 mg/kg/day alone, without 5-HTP, 14 days.
[11] abbreviates: steady state, therapeutic scenario.

Structures are written as SMILES. Like-named read-outs stand apart in the source and are kept apart here.

Here are results for three molecules from US11337963B2, “Compositions and methods of enhancing 5-hydroxytryptophan bioavailability” (Duke University, priority 2018, dated 2022).

Consider `N[C@@H](Cc1c[nH]c2ccc(O)cc12)C(=O)O` [5-HTP, 5-hydroxytryptophan], for which, in [1] (5-HTP 200 mg/kg/day alone via food, 14 days, vs untreated, WT and 5-HTHypo mice), the “levels of plasma 5-HTP” value is “elevated”. Also, the “levels of brain 5-HT” value in the data set with brain 5-HT (setting [9]) was “elevated”. Further, the “levels of brain 5-HIAA” value in the data set with brain 5-HIAA (setting [9]) is listed as “elevated”. Moreover, in data set [2] (5-HTP (Gijsman et al, 2002)), the oral bioavailability result is “modest”. Also, in data set [2] (5-HTP in humans, oral), the “T1/2 (elimination half-life)” value is approximately 2 h and the TMax is approximately 1 h. Besides, in data set [2] (immediate-release oral 5-HTP), the T1/2 entry is recorded as “about 2 hours” and the TMax was 1 to 2 h. Also, the “exogenously administered 5-HTP converted to 5-HT during transport over the intestinal wall” value in data set [3] is “more than 50%”.

Turning to `NC(CO)C(=O)NNCc1ccc(O)c(O)c1O` (centres unmarked) [benserazide], the “potency as inhibitor of AAAD in the peripheral organs relative to carbidopa” value in data set [4] is 10 fold. The “toxicity of chronic PDI treatment without levodopa” value in data set [5] was “significant toxic effects”.

Take `C[C@@](Cc1ccc(O)c(O)c1)(NN)C(=O)O` [carbidopa]: in data set [1] (5-HTP:carbidopa ratios of 20:1 to 100:1), the “enhancing 5-HTP bioavailability and pharmacodynamic (brain 5-HT) effects” value is “effective”. The “effect on plasma 5-HTP” value in [1] (setting [10]) is listed as “no effects”. In addition, the “augmentation of the 5-HTP plasma elevation induced by 5-HTP” value in data set [1] is “manifold and dose-dependently augmented”; in [1] (listed as Carbidopa), “dose-dependently augmented”. The “effect on brain 5-HT” value with brain 5-HT (setting [10]) is “no effects”. For the same molecule, the “augmentation of the brain 5-HT tissue elevation induced by 5-HTP” value in the data set with brain 5-HT is “manifold and dose-dependently augmented”; in the data set on brain 5-HT (listed as Carbidopa), “dose-dependently augmented”. Further, the “effect on brain 5-HIAA” value with brain 5-HIAA (setting [10]) was “no effects”. Besides, the “augmentation of the brain 5-HIAA tissue elevation induced by 5-HTP” value with brain 5-HIAA was “manifold and dose-dependently augmented”; with brain 5-HIAA (listed as Carbidopa) it was “dose-dependently augmented”. In addition, the plasma carbidopa levels in [6] (carbidopa 10 mg/kg/day, the highest dose, limit of detection 2 ng/ml) was less than 2 ng/mL. In [6] (mouse treated with 10 mg/kg/day carbidopa), the “carbidopa peak in HPLC of plasma extract (FIG. 4D)” value is on record as “No carbidopa peak visible”. For the same molecule, the “plasma exposure levels lower than usual systemically active levels” value in [6] (relative to 25 ng/ml) is recorded as “at least 12 times”. For the same molecule, the “average carbidopa plasma levels” value in data set [7] was more than 25 ng/mL. For the same molecule, the “usual systemically active plasma levels” value in [8] (Verhagen et al, 2015, Yeh et al, 1989) is 25 ng/mL. Besides, in data set [8] (setting [11]), the “average plasma levels of carbidopa at maintenance doses” value is not below 25 ng/mL. Also, in data set [8] (setting [11]), the “range of average plasma levels of carbidopa at maintenance doses” value was 25 to 150 ng/mL. In addition, in data set [5], the “toxicity of chronic PDI treatment without levodopa” value was “significant toxic effects”.
